For 27 molecules, IC50 results are on record in patent US12358886B2, “Heterocyclic compounds for use in the treatment of cancer” (Artios Pharma Limited, priority 2019, dated 2025).

Each structure is given as a SMILES string.

Chain of Polθ protein (amino acids 2-2590) (O75417 2-2590): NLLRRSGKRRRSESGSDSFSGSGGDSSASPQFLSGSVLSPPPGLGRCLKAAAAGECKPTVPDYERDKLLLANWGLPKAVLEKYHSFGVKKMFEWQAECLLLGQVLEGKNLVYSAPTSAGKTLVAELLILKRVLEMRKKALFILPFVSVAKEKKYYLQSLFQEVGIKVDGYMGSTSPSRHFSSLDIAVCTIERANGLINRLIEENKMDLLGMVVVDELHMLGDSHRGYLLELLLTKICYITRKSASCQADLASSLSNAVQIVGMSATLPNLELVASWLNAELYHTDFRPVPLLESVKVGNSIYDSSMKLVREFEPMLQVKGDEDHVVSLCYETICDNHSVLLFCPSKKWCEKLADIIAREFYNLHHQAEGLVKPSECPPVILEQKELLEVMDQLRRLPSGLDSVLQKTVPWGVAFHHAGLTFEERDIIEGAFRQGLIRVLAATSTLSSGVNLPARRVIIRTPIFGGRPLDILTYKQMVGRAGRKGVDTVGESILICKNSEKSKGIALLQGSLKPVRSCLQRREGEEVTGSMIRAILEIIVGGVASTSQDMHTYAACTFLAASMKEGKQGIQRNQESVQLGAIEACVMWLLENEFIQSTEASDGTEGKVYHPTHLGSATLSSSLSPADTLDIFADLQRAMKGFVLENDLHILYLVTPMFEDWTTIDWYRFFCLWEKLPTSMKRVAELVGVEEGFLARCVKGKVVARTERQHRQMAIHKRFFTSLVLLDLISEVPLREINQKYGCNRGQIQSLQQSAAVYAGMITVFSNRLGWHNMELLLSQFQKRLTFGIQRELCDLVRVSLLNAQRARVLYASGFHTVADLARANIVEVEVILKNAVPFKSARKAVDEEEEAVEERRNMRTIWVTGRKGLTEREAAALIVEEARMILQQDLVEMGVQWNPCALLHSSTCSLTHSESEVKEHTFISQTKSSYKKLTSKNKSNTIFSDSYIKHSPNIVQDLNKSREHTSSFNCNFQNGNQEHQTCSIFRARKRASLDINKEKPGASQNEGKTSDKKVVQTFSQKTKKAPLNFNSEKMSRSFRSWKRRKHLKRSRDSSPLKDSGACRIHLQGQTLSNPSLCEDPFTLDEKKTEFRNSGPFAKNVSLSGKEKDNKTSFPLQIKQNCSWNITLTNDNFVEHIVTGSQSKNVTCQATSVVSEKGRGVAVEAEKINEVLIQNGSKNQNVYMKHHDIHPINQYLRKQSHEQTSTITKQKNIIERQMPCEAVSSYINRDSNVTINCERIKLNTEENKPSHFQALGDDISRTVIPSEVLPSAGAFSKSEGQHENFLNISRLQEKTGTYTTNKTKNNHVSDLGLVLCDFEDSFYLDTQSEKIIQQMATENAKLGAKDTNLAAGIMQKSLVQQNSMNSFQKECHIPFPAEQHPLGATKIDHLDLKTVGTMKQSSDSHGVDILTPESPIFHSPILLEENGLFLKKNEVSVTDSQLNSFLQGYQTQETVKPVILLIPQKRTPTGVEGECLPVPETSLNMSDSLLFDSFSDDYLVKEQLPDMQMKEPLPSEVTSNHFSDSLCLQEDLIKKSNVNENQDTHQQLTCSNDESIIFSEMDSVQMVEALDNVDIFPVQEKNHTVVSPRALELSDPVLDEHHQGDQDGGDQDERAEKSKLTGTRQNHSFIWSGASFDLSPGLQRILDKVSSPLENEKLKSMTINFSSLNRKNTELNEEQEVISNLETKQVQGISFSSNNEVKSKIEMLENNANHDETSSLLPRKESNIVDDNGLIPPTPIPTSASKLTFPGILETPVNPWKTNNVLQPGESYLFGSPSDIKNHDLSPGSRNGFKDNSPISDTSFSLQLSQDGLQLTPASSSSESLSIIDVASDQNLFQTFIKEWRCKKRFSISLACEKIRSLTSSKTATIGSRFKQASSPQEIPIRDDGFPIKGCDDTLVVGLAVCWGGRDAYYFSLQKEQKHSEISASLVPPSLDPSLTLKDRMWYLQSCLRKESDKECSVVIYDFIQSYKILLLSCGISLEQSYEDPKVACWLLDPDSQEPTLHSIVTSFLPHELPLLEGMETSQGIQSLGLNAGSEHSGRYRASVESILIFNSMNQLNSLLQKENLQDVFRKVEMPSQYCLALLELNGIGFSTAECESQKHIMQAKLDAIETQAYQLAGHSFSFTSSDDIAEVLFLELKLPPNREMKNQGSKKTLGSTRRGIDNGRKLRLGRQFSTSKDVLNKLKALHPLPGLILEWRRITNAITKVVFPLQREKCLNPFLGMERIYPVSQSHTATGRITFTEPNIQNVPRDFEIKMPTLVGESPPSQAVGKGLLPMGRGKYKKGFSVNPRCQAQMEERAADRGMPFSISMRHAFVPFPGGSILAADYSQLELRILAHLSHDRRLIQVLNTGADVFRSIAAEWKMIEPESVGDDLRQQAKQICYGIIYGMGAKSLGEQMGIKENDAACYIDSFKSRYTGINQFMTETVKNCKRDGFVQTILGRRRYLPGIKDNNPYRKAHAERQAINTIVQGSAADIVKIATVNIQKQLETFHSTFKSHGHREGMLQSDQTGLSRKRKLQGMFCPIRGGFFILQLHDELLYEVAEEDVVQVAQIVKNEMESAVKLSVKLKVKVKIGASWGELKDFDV

The test has as its target Polθ protein (amino acids 2-2590) (Homo sapiens, UniProt O75417). Kind of test: Polθ full length enzyme potency assay (PicoGreen). The settings on record: Polθ IC50 (nM), full length N-His, C-term FLAG tagged Polθ, PicoGreen fluorescence, 12 point concentration response.
Procedure: Polθ Full Length Enzyme Potency Assay
PicoGreen assay was used to measure the ability of compounds to inhibit the activity of Polθ in vitro. […] DMSO concentration was maintained at 1% by back filling with DMSO solution. […] This was dispensed into each well of the compound plate using a VIAFLO 16 channel manual pipette (Integra) and pre-incubated at rt for 30 min. 3 μL of 2× working solution of dNTPs (40 μM) (dATP, dCTP, dGTP, dTTP; Sigma D6500, D4635, D4010, T0251) diluted in assay buffer was then added and the reaction incubated for 60 min at rt. The reaction was stopped by addition of 10 mM EDTA, 25 mM Tris pH 7.5 and 1:200 dilution of PicoGreen dye (Invitrogen P7581).
Turning to `CCc1c(F)ccc(N(C)C(=O)[C@@H]2COC(=O)N2c2cc(C(F)(F)F)cc(C)n2)c1F` [Example 108, (S)—N-(3-Ethyl-2,4-difluorophenyl)-N-methyl-3-(6-methyl-4-(trifluoromethyl)pyridin-2-yl)-2-oxooxazolidine-4-carboxamide], inhibition was half-maximal at 12 nM (IC50).

Regarding `Cc1cc(C(F)(F)F)cc(N2C(=O)[C@@H](O)[C@@H](O)[C@H]2C(=O)N(C)c2ccc(F)c(Cl)c2F)n1` [Example 70, (2S,3S,4S)—N-(3-Chloro-2,4-difluorophenyl)-3,4-dihydroxy-N-methyl-1-(6-methyl-4-(trifluoromethyl)pyridin-2-yl)-5-oxopyrrolidine-2-carboxamide], the IC50 worked out at 4 nM.

In the case of `Cc1cccc(N(C)C(=O)[C@@H]2C[C@H](O)CN2c2cc(C)c(Cl)c(C)n2)c1` [Example 29, (2S,4S)-1-(5-Chloro-4,6-dimethylpyridin-2-yl)-4-hydroxy-N-methyl-N-(m-tolyl)pyrrolidine-2-carboxamide], the IC50 amounted to 172 nM.

For `Cc1cc(C(F)(F)F)cc(N2C(=O)OC[C@H]2C(=O)N(C)c2ccc3cc[nH]c3c2)n1` [Example 126, (S)—N-(1H-Indol-6-yl)-N-methyl-3-(6-methyl-4-(trifluoromethyl)pyridin-2-yl)-2-oxooxazolidine-4-carboxamide], the IC50 amounted to 11 nM.

For `Cc1cc(C(F)(F)F)cc(N2C(=O)NC[C@H]2C(=O)N(C)c2ccc3cnn(C)c3c2)n1` [Example 235, (S)—N-Methyl-N-(1-methyl-1H-indazol-6-yl)-3-(6-methyl-4-(trifluoromethyl)pyridin-2-yl)-2-oxoimidazolidine-4-carboxamide], the IC50 was 27 nM.

Regarding `CCN(C(=O)[C@@H]1C[C@H](N2CCC(O)C2)CN1c1cc(C(F)(F)F)cc(C)n1)c1ccc(F)c(F)c1` (stereo partly drawn) [Example 129, (3S,5S)-N-(3,4-Difluorophenyl)-N-ethyl-3-hydroxy-1′-(6-methyl-4-(trifluoromethyl)pyridin-2-yl)-[1,3′-bipyrrolidine]-5′-carboxannide], the IC50 was 78 nM.

Consider `Cc1cc(C(F)(F)F)c(C#N)c(N2C[C@@H](O)C[C@H]2C(=O)N(C)c2cc(F)c(F)cc2F)n1` [Example 20, (2S,4S)-1-(3-Cyano-6-methyl-4-(trifluoromethyl)pyridin-2-yl)-4-hydroxy-N-methyl-N-(2,4,5-trifluorophenyl)pyrrolidine-2-carboxamide], for which the IC50 was found to be 67 nM. The IC50 values of the last two molecules are within 1.5-fold of each other.

`Cc1cc(C(F)(F)F)cc(N2C(=O)[C@@H](O)[C@@H](O)[C@H]2C(=O)N(C)c2ccc3c(n2)N(C)CCO3)n1` [Example 169, (2S,3S,4S)-3,4-Dihydroxy-N-methyl-N-(4-methyl-3,4-dihydro-2H-pyrido[3,2-b][1,4]oxazin-6-yl)-1-(6-methyl-4-(trifluoromethyl)pyridin-2-yl)-5-oxopyrrolidine-2-carboxamide] yielded an IC50 of 106 nM.

In turn, `CCN(C(=O)[C@@H]1C[C@H](N2CCOCC2)C(=O)N1c1cc(C(F)(F)F)cc(C)n1)c1ccc(F)c(Cl)c1` [Example 63, (2S,4S)—N-(3-Chloro-4-fluorophenyl)-N-ethyl-1-(6-methyl-4-(trifluoro-methyl)pyridin-2-yl)-4-morpholino-5-oxopyrrolidine-2-carboxamide] gave an IC50 of 410 nM.

The molecule `Cc1cc(C(F)(F)F)cc(N2C(=O)OC[C@H]2C(=O)N(C)c2ccc(Cl)c(C)c2)n1` [Example 84, (S)—N-(4-Chloro-3-methylphenyl)-N-methyl-3-(6-methyl-4-(trifluoromethyl)pyridin-2-yl)-2-oxooxazolidine-4-carboxamide] yielded an IC50 of 6 nM.

`Cc1cc(C(F)(F)F)cc(N2C(=O)N(CCN3CCS(=O)(=O)CC3)C[C@H]2C(=O)N(C)c2ccc(F)c(Cl)c2F)n1` [Example 208, (S)-N-(3-Chloro-2,4-difluorophenyl)-1-(2-(1,1-dioxidothiomorpholino)-ethyl)-N-methyl-3-(6-methyl-4-(trifluoromethyl)pyridin-2-yl)-2-oxoimidazolidine-4-carboxamide] displayed an IC50 of 9 nM.

Molecule `CO[C@H]1C[C@@H](C(=O)N(C)c2cccc(C)c2)N(c2nc(C)cc(C(F)(F)F)c2C#N)C1` [Example 36, (2S,4S)-1-(3-Cyano-6-methyl-4-(trifluoromethyl)pyridin-2-yl)-4-methoxy-N-methyl-N-(m-tolyl)pyrrolidine-2-carboxamide] registered an IC50 of 48 nM.

The molecule `Cc1cccc(N(C)C(=O)[C@@H]2[C@@H](O)[C@@H](O)CN2c2nc(C)cc(C(F)(F)F)c2C#N)c1` [Example 53, (2S,3R,4S)-1-(3-Cyano-6-methyl-4-(trifluoromethyl)pyridin-2-yl)-3,4-dihydroxy-N-methyl-N-(m-tolyl)pyrrolidine-2-carboxamide] displayed an IC50 of 121 nM. This IC50 lies about 2.5-fold higher than the previous one.

Molecule `Cc1cc(C(F)(F)F)cc(N2C(=O)NC[C@H]2C(=O)N(C)c2ccc3c(C)n[nH]c3c2)n1` [Example 238, (S)—N-Methyl-N-(3-methyl-1H-indazol-6-yl)-3-(6-methyl-4-(trifluoromethyl)pyridin-2-yl)-2-oxoimidazolidine-4-carboxamide] gave an IC50 of 28 nM.

As for `CCN(C(=O)[C@@H]1C[C@H](N2CCOC(CO)C2)CN1c1nc(C)cc(C(F)(F)F)c1C#N)c1ccc(F)c(C)c1` (stereo partly drawn) [Example 150, (2S,4S)-1-(3-Cyano-6-methyl-4-(trifluoromethyl)pyridin-2-yl)-N-ethyl-N-(4-fluoro-3-methylphenyl)-4-(2-(hydroxymethyl)morpholino)pyrrolidine-2-carboxamide], the IC50 worked out at 11 nM.

`CCN(C(=O)[C@@H]1C[C@H](N(C)[C@H]2CN(C(=O)OC(C)(C)C)C[C@H]2O)CN1c1cc(C(F)(F)F)cc(C)n1)c1ccc(F)c(F)c1` [Example 144, tert-Butyl (3S,4R)-3-(((3S,5S)-5-((3,4-difluorophenyl)(ethyl)carbamoyl)-1-(6-methyl-4-(trifluoromethyl)pyridin-2-yl)pyrrolidin-3-yl)(methyl)amino)-4-hydroxypyrrolidine-1-carboxylate] showed an IC50 of 1310 nM.

As to `CCN(C(=O)[C@@H]1C[C@H](NC(C)=O)C(=O)N1c1cc(C(F)(F)F)cc(C)n1)c1ccc(F)c(Cl)c1` [Example 62, (2S,4S)-4-Acetamido-N-(3-chloro-4-fluorophenyl)-N-ethyl-1-(6-methyl-4-(trifluoromethyl)pyridin-2-yl)-5-oxopyrrolidine-2-carboxamide], the IC50 is 208 nM.

Molecule `Cc1cc(C(F)(F)F)cc(N2C(=O)NC[C@H]2C(=O)N(C)c2ccc(F)c(Cl)c2)n1` [Example 156, (S)—N-(3-Chloro-4-fluorophenyl)-N-methyl-3-(6-methyl-4-(trifluoromethyl)pyridin-2-yl)-2-oxoimidazolidine-4-carboxamide] displayed an IC50 of 4 nM.

`Cc1cc(C(F)(F)F)cc(N2C(=O)N(CCS(=O)(=O)N(C)C)C[C@H]2C(=O)N(C)c2ccc(F)c(Cl)c2)n1` [Example 181, (S)—N-(3-Chloro-4-fluorophenyl)-1-(2-(N,N-dimethylsulfamoyl)ethyl)-N-methyl-3-(6-methyl-4-(trifluoromethyl)pyridin-2-yl)-2-oxoimidazolidine-4-carboxamide] displayed an IC50 of 45 nM.

In turn, `Cc1cc(C(F)(F)F)cc(N2C(=O)N(CC3(O)CCNC3)C[C@H]2C(=O)N(C)c2ccc(F)c(Cl)c2F)n1` (stereo partly drawn) [Example 222, (4S)—N-(3-Chloro-2,4-difluorophenyl)-1-((3-hydroxypyrrolidin-3-yl)methyl)-N-methyl-3-(6-methyl-4-(trifluoromethyl)pyridin-2-yl)-2-oxoimidazolidine-4-carboxamide] returned an IC50 of 9 nM.

In turn, `Cc1cc(C(F)(F)F)cc(N2C(=O)N(CCO)C[C@H]2C(=O)N(C)c2ccc(F)c(Cl)c2)n1` [Example 193, (S)—N-(3-Chloro-4-fluorophenyl)-1-(2-hydroxyethyl)-N-methyl-3-(6-methyl-4-(trifluoromethyl)pyridin-2-yl)-2-oxoimidazolidine-4-carboxamide] showed an IC50 of 6 nM. This IC50 is about 1.5-fold lower than that of the molecule before.

`Cc1cc(C(F)(F)F)cc(N2C(=O)OC[C@H]2C(=O)N(C)c2ccc(C)c(O)c2)n1` [Example 105, (S)—N-(3-Hydroxy-4-methylphenyl)-N-methyl-3-(6-methyl-4-(trifluoromethyl)pyridin-2-yl)-2-oxooxazolidine-4-carboxamide] came in with an IC50 of 19 nM.

`CCc1ccc(N(C)C(=O)[C@@H]2COC(=O)N2c2cc(C(F)(F)F)cc(C)n2)c(F)c1` [Example 112, (S)—N-(4-Ethyl-2-fluorophenyl)-N-methyl-3-(6-methyl-4-(trifluoromethyl)pyridin-2-yl)-2-oxooxazolidine-4-carboxamide]: half-maximal inhibition (IC50) was put at 11 nM.

`Cc1cc(C(F)(F)F)c(C#N)c(N2CCC[C@H]2C(=O)N(C)c2ccc3c(n2)N(C)CCO3)n1` [Example 245, (S)-1-(3-Cyano-6-methyl-4-(trifluoromethyl)pyridin-2-yl)-N-methyl-N-(4-methyl-3,4-dihydro-2H-pyrido[3,2-b][1,4]oxazin-6-yl)pyrrolidine-2-carboxamide]: the IC50 was 74 nM. Against the preceding molecule, the IC50 is about 6.7-fold higher.

For the molecule `Cc1cc(C(F)(F)F)cc(N2C(=O)NC[C@H]2C(=O)N(c2ccc(F)c(Cl)c2)C(C)C)n1` [Example 179, (S)—N-(3-Chloro-4-fluorophenyl)-N-isopropyl-3-(6-methyl-4-(trifluoromethyl)pyridin-2-yl)-2-oxoimidazolidine-4-carboxamide], the IC50 was found to be 15 nM.

Molecule `Cc1cc(C(F)(F)F)cc(N2C(=O)N(CC(O)CN3CCC(F)(F)C3)C[C@H]2C(=O)N(C)c2ccc(F)c(Cl)c2F)n1` (stereo partly drawn) [Example 216, (4S)—N-(3-Chloro-2,4-difluorophenyl)-1-(3-(3,3-difluoropyrrolidin-1-yl)-2-hydroxy-propyl)-N-methyl-3-(6-methyl-4-(trifluoromethyl)pyridin-2-yl)-2-oxoimidazolidine-4-carboxamide] gave an IC50 of 4 nM.

With `CCN(C(=O)[C@@H]1C[C@H](N2CCO[C@@H](CO)C2)CN1c1nc(C)cc(C(F)(F)F)c1C#N)c1ccc(F)c(Cl)c1` [Example 155, (2S,4S)-N-(3-Chloro-4-fluorophenyl)-1-(3-cyano-6-methyl-4-(trifluoromethyl)pyridin-2-yl)-N-ethyl-4-((R)-2-(hydroxymethyl)morpholino)pyrrolidine-2-carboxamide], the IC50 is 15 nM.

Usually IC50 stands for the concentration that inhibits the measured activity by half. Higher therefore signals lower potency.
